BindingDB's records for patent US9796704 (SYMPHONY EVOLUTION, INC., 2017)

Key:
Assay in all cases: AlphaScreen Assay
[1] = target: Vascular endothelial growth factor receptor 1 (Homo sapiens, UniProt P17948)
Protocol: (§1) In AlphaScreen, when the donor and acceptor beads are close in proximity, a series of photochemical events will give rise to a fluorescent signal upon light activation. Here we use biotinylated poly-(Glu, Tyr) 4:1 as the kinase substrate, streptavidin-coated donor beads and anti-phosphortyrosine antibody PY100-coated acceptor beads. […] Compounds, ATP, biotinylated poly-(Glu, Tyr) and kinases are mixed in a volume of 20 μL for 1 hr at ambient temperature using Greiner 384-well white clear bottom medium binding plates. Then 10 uL solution containing 15-30 mg/mL AlphaScreen beads, 75 mM Hepes, pH 7.4, 300 mM NaCl, 120 mM EDTA, 0.3% BSA and 0.03% Tween-20 is added to each well. After 2-16 hr incubation of the beads, plates are read in a Perkin Elmer AlphaQuest reader (available from PerkinElmer Life and Analytical Sciences, Inc., of Boston Mass.).

[2] = target: Receptor tyrosine-protein kinase erbB-2 (Homo sapiens, UniProt P04626)
Protocol: as §1

[3] = target: Vascular endothelial growth factor receptor 2 (Homo sapiens, UniProt P35968)
Protocol: as §1

Ephrin type-B receptor 4 = target: T1, Ephrin type-B receptor 4 (Homo sapiens, UniProt P54760)
T1 sequence (P54760 whole entry): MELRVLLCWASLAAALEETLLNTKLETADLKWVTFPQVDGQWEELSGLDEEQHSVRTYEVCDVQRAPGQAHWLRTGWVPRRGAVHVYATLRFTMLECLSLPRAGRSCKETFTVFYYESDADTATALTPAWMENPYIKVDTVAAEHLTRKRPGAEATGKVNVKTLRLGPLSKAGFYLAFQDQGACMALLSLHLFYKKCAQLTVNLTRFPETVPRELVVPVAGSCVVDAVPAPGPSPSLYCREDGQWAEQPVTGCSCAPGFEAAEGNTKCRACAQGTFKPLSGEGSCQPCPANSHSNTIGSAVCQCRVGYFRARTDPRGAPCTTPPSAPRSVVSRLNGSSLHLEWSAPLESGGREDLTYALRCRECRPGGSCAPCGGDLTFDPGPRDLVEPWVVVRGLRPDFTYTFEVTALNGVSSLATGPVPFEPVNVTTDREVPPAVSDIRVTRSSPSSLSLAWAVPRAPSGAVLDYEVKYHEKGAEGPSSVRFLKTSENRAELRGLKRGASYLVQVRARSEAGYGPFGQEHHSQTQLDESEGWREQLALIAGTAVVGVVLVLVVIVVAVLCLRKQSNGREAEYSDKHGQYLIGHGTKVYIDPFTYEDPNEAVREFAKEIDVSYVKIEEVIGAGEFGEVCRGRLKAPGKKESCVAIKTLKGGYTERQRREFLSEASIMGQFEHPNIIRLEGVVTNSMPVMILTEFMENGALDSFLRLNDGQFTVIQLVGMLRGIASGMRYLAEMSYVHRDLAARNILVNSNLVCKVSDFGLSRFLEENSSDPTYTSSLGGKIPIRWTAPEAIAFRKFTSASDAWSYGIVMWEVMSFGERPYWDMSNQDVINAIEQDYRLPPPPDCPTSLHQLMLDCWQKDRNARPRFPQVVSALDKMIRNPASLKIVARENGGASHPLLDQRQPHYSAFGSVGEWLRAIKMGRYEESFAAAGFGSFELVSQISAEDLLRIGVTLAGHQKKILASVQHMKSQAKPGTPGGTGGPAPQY
Protocol: as §1

Ephrin type-A receptor 2 = Ephrin type-A receptor 2 (Homo sapiens, UniProt P29317)
Sequence of Ephrin type-A receptor 2 (P29317 whole entry): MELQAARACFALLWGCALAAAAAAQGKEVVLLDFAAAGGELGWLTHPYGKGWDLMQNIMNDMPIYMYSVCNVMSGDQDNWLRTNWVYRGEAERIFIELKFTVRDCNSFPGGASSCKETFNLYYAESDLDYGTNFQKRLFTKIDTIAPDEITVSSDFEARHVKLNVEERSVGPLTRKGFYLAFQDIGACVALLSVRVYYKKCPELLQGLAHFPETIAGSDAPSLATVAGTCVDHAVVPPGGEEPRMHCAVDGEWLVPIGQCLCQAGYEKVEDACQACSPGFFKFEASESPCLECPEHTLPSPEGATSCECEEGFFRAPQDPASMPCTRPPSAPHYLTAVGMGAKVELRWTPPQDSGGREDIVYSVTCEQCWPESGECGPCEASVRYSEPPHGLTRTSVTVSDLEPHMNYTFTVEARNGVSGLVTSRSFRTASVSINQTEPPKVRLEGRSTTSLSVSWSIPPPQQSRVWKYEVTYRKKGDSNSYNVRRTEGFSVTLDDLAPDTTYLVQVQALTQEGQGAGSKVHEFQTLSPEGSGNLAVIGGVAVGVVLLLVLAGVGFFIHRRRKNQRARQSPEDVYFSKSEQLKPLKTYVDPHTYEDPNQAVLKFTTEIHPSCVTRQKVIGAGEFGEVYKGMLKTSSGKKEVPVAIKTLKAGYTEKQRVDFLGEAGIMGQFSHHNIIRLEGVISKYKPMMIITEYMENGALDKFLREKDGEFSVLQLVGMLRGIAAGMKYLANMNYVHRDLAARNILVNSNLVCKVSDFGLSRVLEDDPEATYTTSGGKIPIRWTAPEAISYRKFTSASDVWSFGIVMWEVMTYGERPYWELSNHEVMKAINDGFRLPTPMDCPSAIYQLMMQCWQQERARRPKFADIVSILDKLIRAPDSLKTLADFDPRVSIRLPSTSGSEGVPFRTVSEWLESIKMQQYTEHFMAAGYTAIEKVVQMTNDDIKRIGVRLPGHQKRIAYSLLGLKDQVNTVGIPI
Protocol: as §1

Sequence of Vascular endothelial growth factor receptor 1 (P17948 whole entry): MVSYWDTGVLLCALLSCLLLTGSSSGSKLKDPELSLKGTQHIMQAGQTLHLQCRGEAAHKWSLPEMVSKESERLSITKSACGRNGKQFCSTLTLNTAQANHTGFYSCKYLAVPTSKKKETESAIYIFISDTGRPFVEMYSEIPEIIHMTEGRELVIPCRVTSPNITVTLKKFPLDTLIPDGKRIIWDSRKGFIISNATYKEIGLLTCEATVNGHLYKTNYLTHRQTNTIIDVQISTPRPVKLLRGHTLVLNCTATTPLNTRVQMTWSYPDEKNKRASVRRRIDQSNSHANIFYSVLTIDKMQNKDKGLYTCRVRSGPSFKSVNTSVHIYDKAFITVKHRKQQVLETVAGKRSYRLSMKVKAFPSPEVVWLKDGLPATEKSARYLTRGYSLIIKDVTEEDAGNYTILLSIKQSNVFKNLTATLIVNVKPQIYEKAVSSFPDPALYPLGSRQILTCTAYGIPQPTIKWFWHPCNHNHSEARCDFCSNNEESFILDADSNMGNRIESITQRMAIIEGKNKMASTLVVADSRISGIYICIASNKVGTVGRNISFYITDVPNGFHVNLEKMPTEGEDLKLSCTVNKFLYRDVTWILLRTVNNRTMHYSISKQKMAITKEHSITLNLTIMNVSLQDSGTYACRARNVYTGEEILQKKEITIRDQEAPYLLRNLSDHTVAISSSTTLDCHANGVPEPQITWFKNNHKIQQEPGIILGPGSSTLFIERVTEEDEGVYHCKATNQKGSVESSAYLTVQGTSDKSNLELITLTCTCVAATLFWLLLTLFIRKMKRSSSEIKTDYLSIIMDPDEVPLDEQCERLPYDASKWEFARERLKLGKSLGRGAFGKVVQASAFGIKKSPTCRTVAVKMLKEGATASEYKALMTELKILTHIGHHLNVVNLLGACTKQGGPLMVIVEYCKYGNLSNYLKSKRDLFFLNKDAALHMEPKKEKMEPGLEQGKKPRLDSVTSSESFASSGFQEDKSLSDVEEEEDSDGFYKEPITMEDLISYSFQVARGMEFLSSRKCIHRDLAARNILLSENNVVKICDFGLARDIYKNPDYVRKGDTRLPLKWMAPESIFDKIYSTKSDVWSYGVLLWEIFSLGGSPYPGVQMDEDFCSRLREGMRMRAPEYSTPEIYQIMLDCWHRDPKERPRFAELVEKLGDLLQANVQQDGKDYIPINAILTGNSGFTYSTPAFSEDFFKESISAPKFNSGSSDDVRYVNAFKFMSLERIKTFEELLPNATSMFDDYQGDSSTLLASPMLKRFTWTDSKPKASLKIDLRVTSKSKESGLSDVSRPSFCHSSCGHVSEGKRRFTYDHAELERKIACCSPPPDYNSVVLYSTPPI
Sequence of Receptor tyrosine-protein kinase erbB-2 (P04626 whole entry): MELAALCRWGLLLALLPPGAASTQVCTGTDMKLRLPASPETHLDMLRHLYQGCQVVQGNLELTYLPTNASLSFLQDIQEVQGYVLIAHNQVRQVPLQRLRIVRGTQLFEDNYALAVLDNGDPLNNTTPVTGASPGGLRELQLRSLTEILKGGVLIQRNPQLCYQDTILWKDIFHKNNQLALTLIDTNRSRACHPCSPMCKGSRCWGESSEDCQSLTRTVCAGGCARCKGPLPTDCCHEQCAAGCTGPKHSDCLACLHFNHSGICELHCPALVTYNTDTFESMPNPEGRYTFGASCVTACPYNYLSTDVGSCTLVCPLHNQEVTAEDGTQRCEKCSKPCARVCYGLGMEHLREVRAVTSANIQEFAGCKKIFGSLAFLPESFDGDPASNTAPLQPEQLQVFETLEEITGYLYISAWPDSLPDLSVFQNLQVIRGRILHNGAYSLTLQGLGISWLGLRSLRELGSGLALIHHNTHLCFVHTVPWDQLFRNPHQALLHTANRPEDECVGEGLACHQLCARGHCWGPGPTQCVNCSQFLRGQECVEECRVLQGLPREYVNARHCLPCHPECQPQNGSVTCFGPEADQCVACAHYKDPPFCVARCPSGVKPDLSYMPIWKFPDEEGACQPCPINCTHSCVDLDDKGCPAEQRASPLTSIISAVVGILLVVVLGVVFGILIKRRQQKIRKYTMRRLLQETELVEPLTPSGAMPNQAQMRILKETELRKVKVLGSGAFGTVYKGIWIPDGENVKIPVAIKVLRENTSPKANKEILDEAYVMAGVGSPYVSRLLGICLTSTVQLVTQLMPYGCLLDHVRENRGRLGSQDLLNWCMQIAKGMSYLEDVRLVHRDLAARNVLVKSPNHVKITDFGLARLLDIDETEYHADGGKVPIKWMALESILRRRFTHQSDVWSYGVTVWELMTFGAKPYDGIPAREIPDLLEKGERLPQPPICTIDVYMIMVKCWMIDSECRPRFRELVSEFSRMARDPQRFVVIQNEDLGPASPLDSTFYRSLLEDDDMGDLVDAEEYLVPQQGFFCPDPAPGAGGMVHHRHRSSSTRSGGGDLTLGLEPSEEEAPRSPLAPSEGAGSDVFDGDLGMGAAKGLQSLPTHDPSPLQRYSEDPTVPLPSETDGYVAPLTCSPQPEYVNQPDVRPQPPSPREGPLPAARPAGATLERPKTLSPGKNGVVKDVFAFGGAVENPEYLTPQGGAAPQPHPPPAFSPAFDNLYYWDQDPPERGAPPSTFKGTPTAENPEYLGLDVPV
Sequence of Vascular endothelial growth factor receptor 2 (P35968 whole entry): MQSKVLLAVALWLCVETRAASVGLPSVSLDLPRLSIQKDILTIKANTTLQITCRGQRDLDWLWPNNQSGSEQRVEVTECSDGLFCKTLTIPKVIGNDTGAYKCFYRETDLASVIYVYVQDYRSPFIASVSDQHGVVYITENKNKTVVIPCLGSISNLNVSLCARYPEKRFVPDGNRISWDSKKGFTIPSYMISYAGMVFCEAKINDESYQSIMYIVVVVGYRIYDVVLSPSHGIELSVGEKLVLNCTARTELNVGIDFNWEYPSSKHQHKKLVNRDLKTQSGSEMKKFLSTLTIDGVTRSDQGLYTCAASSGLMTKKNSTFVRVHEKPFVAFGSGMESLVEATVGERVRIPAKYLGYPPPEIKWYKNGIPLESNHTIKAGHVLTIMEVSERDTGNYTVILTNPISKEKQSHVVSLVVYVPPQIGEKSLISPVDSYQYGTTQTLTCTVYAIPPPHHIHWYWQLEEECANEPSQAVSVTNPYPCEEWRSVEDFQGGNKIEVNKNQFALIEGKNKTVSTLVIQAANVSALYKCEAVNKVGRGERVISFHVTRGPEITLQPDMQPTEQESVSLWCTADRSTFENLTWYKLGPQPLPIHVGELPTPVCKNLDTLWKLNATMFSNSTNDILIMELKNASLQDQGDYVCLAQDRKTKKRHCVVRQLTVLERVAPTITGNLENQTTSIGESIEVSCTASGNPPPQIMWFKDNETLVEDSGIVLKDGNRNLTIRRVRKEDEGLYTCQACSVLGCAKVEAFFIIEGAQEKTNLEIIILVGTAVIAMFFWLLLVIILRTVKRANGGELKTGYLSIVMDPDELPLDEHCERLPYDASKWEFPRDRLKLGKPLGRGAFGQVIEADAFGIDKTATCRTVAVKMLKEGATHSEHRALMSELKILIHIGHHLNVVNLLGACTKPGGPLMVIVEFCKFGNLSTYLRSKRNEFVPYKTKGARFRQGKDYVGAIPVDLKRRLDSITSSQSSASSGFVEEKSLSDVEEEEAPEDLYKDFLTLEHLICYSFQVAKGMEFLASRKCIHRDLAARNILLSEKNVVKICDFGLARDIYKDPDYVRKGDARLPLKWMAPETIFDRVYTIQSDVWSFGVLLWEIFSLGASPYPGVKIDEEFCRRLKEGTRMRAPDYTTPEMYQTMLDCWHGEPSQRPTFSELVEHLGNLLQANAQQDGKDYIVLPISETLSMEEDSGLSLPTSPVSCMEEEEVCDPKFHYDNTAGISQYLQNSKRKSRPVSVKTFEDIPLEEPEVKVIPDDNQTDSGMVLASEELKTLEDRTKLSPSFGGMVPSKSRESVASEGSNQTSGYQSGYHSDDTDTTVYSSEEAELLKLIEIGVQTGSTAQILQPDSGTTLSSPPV

With COc1cc2c(Nc3ccc(Cl)c(Cl)c3F)ncnc2cc1OC[C@@H]1C[C@@H]2CN(C(C)C)C[C@@H]2C1 [US9796704, Entry 1] the IC50 [1] was “in the range around 0.525 µM” and the IC50 [2] was less than 0.05 µM.

For COc1cc2c(Nc3ccc(Br)c(Cl)c3F)ncnc2cc1OC[C@@H]1C[C@@H]2CN(S(C)(=O)=O)C[C@@H]2C1 [US9796704, Entry 6], the IC50 [2] was “in the range around 0.525 µM”, the IC50 [3] was “in the range around 0.525 µM” and the IC50 (Ephrin type-B receptor 4) was less than 0.05 µM. The IC50 (Ephrin type-A receptor 2) was “in the range around 0.525 µM”.

COc1cc2c(Nc3ccc(Cl)c(Cl)c3F)ncnc2cc1OC[C@H]1C[C@@H]2CN(C)C[C@@H]2C1 [US9796704, Entry 9] was tested, and the IC50 [2] was “in the range around 0.525 µM”, the IC50 [3] was “in the range around 0.525 µM” and the IC50 (Ephrin type-B receptor 4) was “in the range around 0.525 µM”. For the same molecule, the IC50 (Ephrin type-A receptor 2) was “in the range around 0.525 µM”.

In the case of COc1cc2c(Nc3ccc(Br)c(Cl)c3F)ncnc2cc1OC[C@H]1C[C@@H]2CN(C)C[C@@H]2C1 [US9796704, Entry 10], the IC50 [1] is reported as “in the range around 0.525 µM” and the IC50 [2] is reported as “in the range around 0.525 µM”.

COc1cc2c(Nc3ccc(Cl)c(Cl)c3)ncnc2cc1OC[C@@H]1CN2CCC[C@H]2CO1 [US9796704, Entry 34] was tested, and the IC50 [2] was less than 0.05 µM, the IC50 [3] was “in the range around 0.525 µM” and the IC50 (Ephrin type-B receptor 4) was “in the range around 0.525 µM”. For the same molecule, the IC50 (Ephrin type-A receptor 2) was “in the range around 0.525 µM”.

With COc1cc2c(Nc3ccc(Cl)c(Cl)c3)ncnc2cc1OC[C@H]1CN2CCC[C@H]2CO1 [US9796704, Entry 35] the IC50 [2] was “in the range around 0.525 µM”, the IC50 (Ephrin type-B receptor 4) was “in the range around 0.525 µM” and the IC50 (Ephrin type-A receptor 2) was “in the range around 0.525 µM”.

With COc1cc2c(Nc3ccc(Br)c(Cl)c3F)ncnc2cc1OC[C@@H]1CN2CCC[C@H]2CO1 [US9796704, Entry 37] the IC50 [2] was less than 0.05 µM and the IC50 (Ephrin type-B receptor 4) was “in the range around 0.525 µM”.

In the case of COc1cc2c(Nc3ccc(Cl)c(Cl)c3F)ncnc2cc1OC[C@@H]1CN2CCC[C@H]2C(=O)N1 [US9796704, Entry 51], the IC50 [1] is reported as “in the range around 10.5 µM”, the IC50 [3] is reported as “in the range around 10.5 µM” and the IC50 (Ephrin type-A receptor 2) is reported as “in the range around 10.5 µM”.

In the case of COc1cc2c(Nc3ccc(Cl)c(Cl)c3F)ncnc2cc1OC[C@@H]1CN2CCC[C@@H]2C(=O)N1 [US9796704, Entry 52], the IC50 [1] is reported as “in the range around 10.5 µM”, the IC50 [3] is reported as “in the range around 10.5 µM” and the IC50 (Ephrin type-A receptor 2) is reported as “in the range around 10.5 µM”.

COc1cc2c(Nc3ccc(Cl)c(Cl)c3)ncnc2cc1OCC1CN2CSC[C@H]2CO1 (some centres not stated) [US9796704, Entry 56] was tested, and the IC50 [1] was “in the range around 10.5 µM”, the IC50 [3] was “in the range around 10.5 µM” and the IC50 (Ephrin type-A receptor 2) was “in the range around 10.5 µM”.

In the case of COc1cc2c(Nc3ccc(Cl)c(Cl)c3)ncnc2cc1OCC1CC2CCC(C1)N2C (configuration not stated) [US9796704, Entry 58], the IC50 [1] is reported as “in the range around 10.5 µM”.

In the case of COc1cc2c(Nc3ccc(F)c(F)c3)ncnc2cc1O[C@@H]1CO[C@@H]2[C@H]1OC[C@H]2F [US9796704, Entry 111], the IC50 [2] is reported as “in the range around 0.525 µM”, the IC50 [3] is reported as “in the range around 0.525 µM” and the IC50 (Ephrin type-B receptor 4) is reported as “in the range around 0.525 µM”. The IC50 (Ephrin type-A receptor 2) was “in the range around 0.525 µM”.

COc1cc2c(Nc3ccc(Cl)c(Cl)c3)ncnc2cc1OCc1nc(-c2ccc(Cl)cc2)no1 [US9796704, Entry 168] was tested, and the IC50 [3] was “in the range around 0.525 µM”, the IC50 (Ephrin type-B receptor 4) was “in the range around 0.525 µM” and the IC50 (Ephrin type-A receptor 2) was “in the range around 0.525 µM”.

For COc1cc2c(Nc3ccc(Cl)c(Cl)c3)ncnc2cc1OCc1c(OC)ccc2cc(Br)ccc12 [US9796704, Entry 169], the IC50 [3] was “in the range around 0.525 µM”, the IC50 (Ephrin type-B receptor 4) was “in the range around 0.525 µM” and the IC50 (Ephrin type-A receptor 2) was “in the range around 10.5 µM”.

For COc1cc2c(Nc3ccc(Cl)c(Cl)c3)ncnc2cc1OCc1ccc(Cl)nc1 [US9796704, Entry 171], the IC50 [3] was “in the range around 0.525 µM”, the IC50 (Ephrin type-B receptor 4) was “in the range around 0.525 µM” and the IC50 (Ephrin type-A receptor 2) was “in the range around 10.5 µM”.

COc1cc2c(Nc3ccc(Cl)c(Cl)c3)ncnc2cc1OCc1csc(C)n1 [US9796704, Entry 173] was tested, and the IC50 [3] was “in the range around 0.525 µM”, the IC50 (Ephrin type-B receptor 4) was “in the range around 0.525 µM” and the IC50 (Ephrin type-A receptor 2) was “in the range around 0.525 µM”.

For COc1cc2c(Nc3ccc(Cl)c(Cl)c3)ncnc2cc1OCc1cc(Cl)cc2c1OCOC2 [US9796704, Entry 174], the IC50 [3] was “in the range around 0.525 µM”, the IC50 (Ephrin type-B receptor 4) was “in the range around 10.5 µM” and the IC50 (Ephrin type-A receptor 2) was “in the range around 10.5 µM”.

In the case of COc1cc2c(Nc3ccc(Cl)c(Cl)c3)ncnc2cc1OCC1=CC2C(C(F)(F)F)=NN(C)C2S1 (configuration not stated) [US9796704, Entry 176], the IC50 [3] is reported as “in the range around 0.525 µM”, the IC50 (Ephrin type-B receptor 4) is reported as “in the range around 0.525 µM” and the IC50 (Ephrin type-A receptor 2) is reported as “in the range around 0.525 µM”.

In the case of COc1cc2c(Nc3ccc(Cl)c(Cl)c3)ncnc2cc1OCc1cc(-c2ccccc2)no1 [US9796704, Entry 177], the IC50 [3] is reported as “in the range around 0.525 µM”, the IC50 (Ephrin type-B receptor 4) is reported as “in the range around 0.525 µM” and the IC50 (Ephrin type-A receptor 2) is reported as “in the range around 0.525 µM”.

COc1cc2c(Nc3ccc(Cl)c(Cl)c3)ncnc2cc1OCc1c(C)cc(C)cc1C [US9796704, Entry 178] was tested, and the IC50 [3] was “in the range around 10.5 µM”, the IC50 (Ephrin type-B receptor 4) was “in the range around 10.5 µM” and the IC50 (Ephrin type-A receptor 2) was “in the range around 10.5 µM”.

COc1ccc(-c2cc(COc3cc4ncnc(Nc5ccc(Cl)c(Cl)c5)c4cc3OC)on2)cc1 [US9796704, Entry 180] was tested, and the IC50 [3] was “in the range around 0.525 µM”, the IC50 (Ephrin type-B receptor 4) was “in the range around 0.525 µM” and the IC50 (Ephrin type-A receptor 2) was “in the range around 0.525 µM”.

COc1cc2c(Nc3ccc(Cl)c(Cl)c3)ncnc2cc1OCc1c(C(F)(F)F)nn(C)c1Oc1ccc(Cl)cc1Cl [US9796704, Entry 181] was tested, and the IC50 [3] was “in the range around 0.525 µM”, the IC50 (Ephrin type-B receptor 4) was “in the range around 0.525 µM” and the IC50 (Ephrin type-A receptor 2) was “in the range around 0.525 µM”.

With COc1cc2c(Nc3ccc(Cl)c(Cl)c3)ncnc2cc1OC[C@@H]1O[C@@H](OC)[C@@H](O)[C@H](O)[C@H]1O [US9796704, Entry 194] the IC50 [3] was “in the range around 0.525 µM”, the IC50 (Ephrin type-B receptor 4) was less than 0.05 µM and the IC50 (Ephrin type-A receptor 2) was “in the range around 0.525 µM”.

COc1cc2c(Nc3ccc(Cl)c(Cl)c3)ncnc2cc1OCc1noc(COCc2ccccc2)n1 [US9796704, Entry 211] was tested, and the IC50 [3] was “in the range around 0.525 µM”, the IC50 (Ephrin type-B receptor 4) was “in the range around 0.525 µM” and the IC50 (Ephrin type-A receptor 2) was “in the range around 0.525 µM”.

CCN1CCCC1c1noc(COc2cc3ncnc(Nc4ccc(Cl)c(Cl)c4)c3cc2OC)n1 (configuration not stated) [US9796704, Entry 255] was tested, and the IC50 [2] was “in the range around 10.5 µM”, the IC50 [3] was “in the range around 10.5 µM” and the IC50 (Ephrin type-B receptor 4) was “in the range around 0.525 µM”. The IC50 (Ephrin type-A receptor 2) was “in the range around 10.5 µM”.

For CCN1CCCC1c1nc(COc2cc3ncnc(Nc4ccc(Cl)c(Cl)c4)c3cc2OC)cs1 (configuration not stated) [US9796704, Entry 256], the IC50 [2] was “in the range around 10.5 µM”, the IC50 [3] was “in the range around 10.5 µM” and the IC50 (Ephrin type-B receptor 4) was “in the range around 0.525 µM”. For the same molecule, the IC50 (Ephrin type-A receptor 2) was “in the range around 10.5 µM”.

C=CCCCCN1CCOC(COc2cc3ncnc(Nc4ccc(Cl)c(Cl)c4)c3cc2OC)C1 (configuration not stated) [US9796704, Entry 274] was tested, and the IC50 [2] was “in the range around 10.5 µM”, the IC50 [3] was “in the range around 10.5 µM” and the IC50 (Ephrin type-B receptor 4) was “in the range around 10.5 µM”. For the same molecule, the IC50 (Ephrin type-A receptor 2) was “in the range around 10.5 µM”.

With COC(=O)CCN1CCOC(COc2cc3ncnc(Nc4ccc(Cl)c(Cl)c4)c3cc2OC)C1 (configuration not stated) [US9796704, Entry 276] the IC50 [2] was “in the range around 10.5 µM”, the IC50 [3] was “in the range around 10.5 µM” and the IC50 (Ephrin type-B receptor 4) was “in the range around 10.5 µM”. For the same molecule, the IC50 (Ephrin type-A receptor 2) was “in the range around 10.5 µM”.
